# According to patent US6399766B2, “4-halogenated steroids, their preparation process and intermediates, their use as medicaments and the pharmaceutical compositions containing them” (Aventis Pharma S.A., priority 1997, dated 2002):
# Legend:
# [1] = test system: MCF-7 human mammary cells; assay: Effect on the proliferation of mammary cells; format: cell-based; set-up: key: Mixed: slight agonist activity at very low concentrations and an inhibitory activity at higher concentrations; conditions: 7 days culture, steroid-free medium, DNA determination; oestradiol at 10^−10M = 100% agonist activity
# Text: PHARMACOLOGICAL TESTS Effect on the proliferation of mammary cells The proliferative activity of the molecules is studied in comparison to that of oestradiol on MCF-7 human mammary cells in culture. In order to reveal an agonist effect of the oestradiol and/or the tested molecules, the cell maintenance culture (rich in growth factors and steroids) is replaced by an impoverished medium, amongst others free of steroids (DMEM supplemented with 5% of steroid-free serum and without phenol red). Cells undergo this severance two days before the start of the test. After 7 days culture in the presence of the products to be studied, the cell proliferation is evaluated by determination of the DNA. In each test, the effect of the oestradiol at 10^−10M (cell growth in the presence of oestradiol less cell growth in the presence of the solvent) determines the 100% agonist activity. The activity of the molecules is evaluated in comparison to this internal control.
# [2] = test system: ovariectomized female rat; assay: Bone impact study in the ovariectomized female rat at the age of 3 months (tibia BMD, uterus weight, seric cholesterol); format: in vivo; conditions: OVX rat, 4 weeks; for TIBIA BONE BMD %: (product BMD - OVX BMD)x100/(SHAM BMD - OVX BMD); for UTERUS Weight %: increase in % of uterus weight of OVX animals receiving only solvent; for Cholesterol %: seric cholesterol, % relative to OVX animals receiving only solvent
# Procedure: Bone impact study of a product in the ovariectomized female rat at the age of 3 months Compounds A, B, C, D, E are tested in order to determine their effect on the bone mass and on the formation and resorption activity in the model of the ovariectomized rat at the age of 3 months. […] The study is carried out with female rats ovariectomized at the age of 3 months. The animals are kept in an air conditioned room (temperature 20° C.±2° C.) and grouped by 4 into boxes. The animals receive, ad libitum, demineralized water and compressed foods (pellets: AO4CR-10 UAR). The 3 month old female rats weighing approximately 250 g are ovariectomized under anaesthesia with Imalgene 1000, at a dose of 100 mg/kg by intraperitoneal route (i.p.) and under a volume of 1 ml/kg. They also receive Nembutal (3 mg/kg i.p. under a volume of 0.3 ml/kg). After lateral incision, cutaneous and muscular planes are sectioned. The exeresis of each ovary is carried out after ligature of the oviduct. The “SHAM” control rats are anaesthetised under the same conditions. After incision of the cutaneous and muscular planes, each ovary is exposed then replaced in situ. The effects of the products are determined in a preventive treatment. They are administered immediately after the ovariectomy. Animals distributed into groups of 8. Group 1: “SHAM” control rats receiving the vehicle or vehicles Group 2: “OVX” control rats receiving the vehicle or vehicles. Groups X: “OVX” rats receiving respectively defined doses of the product or products to be tested. At the end of 4 weeks (duration of the study) the animals are decapitated by guillotine. The serums collected after centrifugation are preserved at −20° C. A lipidic balance will be established from the serous determinations of total cholesterol, of triglycerides and of phospholipids on a 500 μl aliquot of serum. The lowering of the seric cholesterol level is expressed in % relative to the level shown by the ovariectomized animals receiving only the solvent. The uteri are removed. The latter are weighed. The increase in weight is expressed in % of the weight of the uterus of ovariectomized animals receiving only the solvent. The bone mass (BMD or Bone mineral density) is measured by biphotonic dual energy X-ray absorptiometry (DEXA). The measurements are carried out on bone excized and cleaned of all soft tissue. The BMD (Bone mineral density) is measured on the whole bone as well as on the metaphyseal part at the level of the proximal extremity for the left tibia. This zone is defined as being the region which is richest in trabecular bone; and consequently, is the most sensitive to variations in bone volume and bone mineral density. The results are expressed in % according to the formula: Tested product BMD - OVX BMD ×100/SHAM BMD - OVX BMD
Structure (SMILES),ACTIVITY (proliferative activity on MCF-7 cells) [1],TIBIA BONE BMD % ([2]; 0.3 mg/kg po),UTERUS Weight % ([2]; 0.3 mg/kg po),Cholesterol % ([2]; 0.3 mg/kg po),TIBIA BONE BMD % ([2]; 1.0 mg/kg po),UTERUS Weight % ([2]; 1.0 mg/kg po),Cholesterol % ([2]; 1.0 mg/kg po),TIBIA BONE BMD % ([2]; 0.1 mg/kg s.c.),UTERUS Weight % ([2]; 0.1 mg/kg s.c.),Cholesterol % ([2]; 0.1 mg/kg s.c.)
"C[C@]12C[C@H](c3ccc(OCCN4CCCCC4)cc3)[C@@H]3c4ccc(O)c(Cl)c4CC[C@H]3[C@@H]1CCC2=O [Example 1, 4-chloro-3-hydroxy-11beta-[4-[2-(1-piperidinyl)ethoxy]phenyl]-estra-1,3,5 (10)-trien-17-one]",Mixed,57%,55%,−50%,64%,55%,−48%,,,
"CCN(CC)CCOc1ccc([C@H]2C[C@]3(C)[C@@H](O)CC[C@H]3[C@@H]3CCc4c(ccc(O)c4Cl)[C@H]32)cc1 [Example 20, 4-chloro-11beta-[4-[2-(diethylamino)ethoxy]phenyl]-estra-1,3,5 (10)-triene-3,17beta-diol]",Mixed*,69%,60%,−43%,74%,50%,−40%,,,
"C[C@]12C[C@H](c3ccc(OCCN4CCCCC4)cc3)[C@@H]3c4ccc(O)c(Cl)c4CC[C@H]3[C@@H]1CC[C@@H]2O [Example 22, 4-chloro-11β-[4-[2-(1-piperidinyl)ethoxy]phenyl]-estra-1,3,5(10)-triene-3,17beta-diol]",Inactive,63%,57%,−52%,,,,,,
"C[C@]12C[C@H](c3ccc(OCCN4CCCC4)cc3)[C@@H]3c4ccc(O)c(Cl)c4CC[C@H]3[C@@H]1CC[C@@H]2O [Example 23, 4-chloro-11β-[4-[2-(1-pyrrolidinyl)ethoxy]phenyl]-estra-1,3,5(10)-triene-3,17beta-diol]",Mixed,67%,64%,−53%,71%,74%,−53%,,,
"CC1(O)CCC2C3CCc4c(ccc(O)c4Cl)C3C(c3ccc(OCCN4CCCCC4)cc3)CC21C (stereo not drawn) [Example 30, 4-chloro-17alpha-methyl-11β-[4-[2-(1-piperidinyl)ethoxy]phenyl]-estra-1,3,5(10)-triene-3,17beta-diol.]",Mixed,52%,68%,−51%,71%,55%,−48%,,,
"C[C@]12CC[C@@H]3c4ccc(O)cc4CC[C@H]3[C@@H]1CC[C@@H]2O [Oestradiol, 17β oestradiol, reference compound]",Agonist,,,,,,,105%,359%,−35%
